From patent US20240360139A1, “BLOOD BRAIN BARRIER PENETRATING SELECTIVE INHIBITORS OF ROCK2 PROTEIN KINASES AND USES THEREOF” (GENOSCO Inc., priority 2023, published 2024)
pIC50: −log10 of the molar value.

Key:
[1] = target: T1, Recombinant ROCK2 (amino acids 5-554) (Homo sapiens, UniProt O75116); assay: ROCK inhibition assay, LANCE Ultra TR-FRET (ROCK2); type: biochemical; conditions: 1 mM of ATP
T1 construct: ROCK2 (amino acids 5-554)

[2] = Blood-brain barrier penetration, brain-to-plasma ratio in mouse; type: in vivo; conditions: CD-1 mouse, IV 1 mg/kg, n=3
Experimental: (§1) The concentrations of compounds of (1) in blood and brain were measured from plasma and brain samples taken 0.25 and 2 hours after intravenous (IV) administration of the compounds of (1) at 1 mg/kg in CD-1 mouse and Sprague-Dawley rat (n=3). After euthanizing the mouse and rat, blood samples from cardiac puncture and brain tissue were collected. Plasma or brain homogenate was vortexed for 1 min. with internal standard in Methanol/Acetonitrile (1:1, v/v), and centrifuged at 4000-4500 rpm for 15 min. at room temperature to precipitate proteins. Subsequently, the supernatant was introduced into the LC/MS/MS system. An AB Sciex API 5500 mass spectrometer system (Sciex, USA) was used for quantitative analysis. The concentrations compounds of (1) in plasma and brain sample were determined using the standard calibration curve and brain-to-plasma concentration ratio was calculated.

[3] = target: T2, Recombinant ROCK1 (amino acids 1-477) (Homo sapiens, UniProt Q13464); assay: ROCK inhibition assay, LANCE Ultra TR-FRET (ROCK1); type: biochemical; conditions: 1 mM of ATP
T2 construct: Recombinant ROCK1 (amino acids 1-477)

[4] = Blood-brain barrier penetration, brain-to-plasma ratio in rat; type: in vivo; conditions: Sprague-Dawley rat, IV 1 mg/kg, n=3
Experimental: as §1

T1 sequence (O75116 5-554): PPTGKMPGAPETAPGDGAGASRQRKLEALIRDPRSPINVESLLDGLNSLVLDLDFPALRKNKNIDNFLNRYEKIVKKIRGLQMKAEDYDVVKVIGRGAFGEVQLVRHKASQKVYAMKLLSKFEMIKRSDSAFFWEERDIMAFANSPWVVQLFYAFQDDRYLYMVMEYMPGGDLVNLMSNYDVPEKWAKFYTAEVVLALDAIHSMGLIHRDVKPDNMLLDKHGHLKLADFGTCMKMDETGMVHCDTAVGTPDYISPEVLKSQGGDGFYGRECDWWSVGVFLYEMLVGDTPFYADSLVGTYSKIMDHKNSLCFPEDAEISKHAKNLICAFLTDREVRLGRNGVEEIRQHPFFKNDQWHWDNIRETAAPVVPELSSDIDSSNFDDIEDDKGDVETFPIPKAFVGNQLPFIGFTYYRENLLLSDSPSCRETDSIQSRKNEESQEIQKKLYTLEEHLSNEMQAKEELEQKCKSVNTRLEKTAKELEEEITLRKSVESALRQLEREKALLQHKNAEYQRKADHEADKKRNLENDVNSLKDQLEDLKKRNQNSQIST
T2 sequence (Q13464 1-477): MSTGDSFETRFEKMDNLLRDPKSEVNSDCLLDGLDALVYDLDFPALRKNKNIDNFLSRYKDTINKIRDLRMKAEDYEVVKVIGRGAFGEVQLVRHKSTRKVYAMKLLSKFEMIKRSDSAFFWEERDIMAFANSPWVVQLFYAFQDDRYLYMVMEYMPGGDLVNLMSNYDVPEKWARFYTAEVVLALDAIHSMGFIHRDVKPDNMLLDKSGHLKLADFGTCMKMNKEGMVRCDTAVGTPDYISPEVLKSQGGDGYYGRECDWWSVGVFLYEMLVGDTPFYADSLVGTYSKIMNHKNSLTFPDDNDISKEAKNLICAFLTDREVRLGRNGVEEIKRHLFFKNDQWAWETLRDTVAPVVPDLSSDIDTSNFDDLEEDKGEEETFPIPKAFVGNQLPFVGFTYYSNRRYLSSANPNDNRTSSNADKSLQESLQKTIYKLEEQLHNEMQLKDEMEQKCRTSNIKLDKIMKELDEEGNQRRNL

SMILES | pIC50 [1] | Kp at 0.25 h [2] | Kp at 2 h [2] | pIC50 [3] | Kp at 0.25 h [4] | Kp at 2 h [4]
CN1CC[C@@H]1Cn1cc(C(=O)C2COc3ccc(Cl)cc3C2)c2ccc(-c3cn[nH]c3Cl)cc21 (stereo partly drawn) [Compound 1-55] | > 7.70 | 0.67 | 0.8 | < 6.30 | 0.4 | 0.59
CN1CC[C@H]1Cn1nc(C(=O)C2COc3ccc(F)cc3C2)c2ccc(-c3c[nH]nc3F)cc21 (stereo partly drawn) [Compound 5-56] | 6.70 to 7.68 | 7.32 | 10.2 | < 6.30 | 12.4 | 20.2
CNCCn1cc(C(=O)C2COc3ccc(OC)cc3C2)c2ccc(-c3cn[nH]c3F)cc21 (stereo not drawn) [Compound 3-24] | 6.70 to 7.68 | 0.96 | 0.54 | < 6.30 | 1.37 | 1.38
CCN(CC)CCn1cc(C(=O)C2COc3ccc(OC)cc3C2)c2ccc(-c3cn[nH]c3Cl)cc21 (stereo not drawn) [Compound 3-17] | 6.70 to 7.68 | 0.73 | 0.92 | < 6.30 | 1.05 | 0.98
COc1n[nH]cc1-c1ccc2c(C(=O)[C@@H]3COc4ccc(Cl)cc4C3)cn(CCCN(C)C)c2c1 [Compound 3-7] | 6.70 to 7.68 | – | – | 6.30 to 6.70 | – | –
COc1ccc2c(c1)CC(C(=O)c1cn(CCN(C)C)c3nc(-c4c[nH]nc4Cl)ccc13)CO2 (stereo not drawn) [Compound 1-13] | > 7.70 | – | – | < 6.30 | – | –
COc1[nH]ncc1-c1ccc2c(C(=O)[C@@H]3COc4ccc(Cl)cc4C3)cn(CCN(C)C)c2c1 [Compound 5-30] | > 7.70 | – | – | 6.30 to 6.70 | – | –
COc1ccc2c(c1)CC(C(=O)c1cn(CC3(N)CC3)c3cc(-c4cn[nH]c4Cl)ccc13)CO2 (stereo not drawn) [Compound 4-3] | > 7.70 | – | – | 6.70 to 7.68 | – | –
CN(C)CCn1cc(C(=O)C2COc3ccc(F)cc3C2)c2ccc(-c3c[nH]nc3Cl)nc21 (stereo not drawn) [Compound 1-10] | 6.70 to 7.68 | – | – | < 6.30 | – | –
COc1[nH]ncc1-c1ccc2c(C(=O)C3COc4ccc(Cl)cc4C3)cn(CC3CCCN3C)c2c1 (stereo not drawn) [Compound 1-19] | 6.70 to 7.68 | – | – | < 6.30 | – | –
CN(C)CCn1cc(C(=O)[C@@H]2COc3ccc(Cl)cc3C2)c2ccc(-c3cn[nH]c3F)cc21 [Compound 1-25] | 6.70 to 7.68 | – | – | 6.30 to 6.70 | – | –
COc1ccc2c(c1)CC(C(=O)c1cn(CCN(C)C)c3cc(-c4cn[nH]c4OC)ccc13)CO2 (stereo not drawn) [Compound 5-41] | 6.70 to 7.68 | – | – | 6.30 to 6.70 | – | –
CN(C)CCn1cc(C(=O)C2COc3ccc(Cl)cc3C2)c2ccc(-c3c[nH]nc3Cl)nc21 (stereo not drawn) [Compound 1-9] | 6.70 to 7.68 | – | – | 6.30 to 6.70 | – | –
COc1ccc2c(c1)CC(C(=O)c1cn(C[C@@H]3CCN3)c3cc(-c4cn[nH]c4OC)ccc13)CO2 (stereo partly drawn) [Compound 1-41] | > 7.70 | – | – | 6.30 to 6.70 | – | –
COc1n[nH]cc1-c1ccc2c(C(=O)C3COc4ccc(F)cc4C3)nn(CCN(C)C)c2c1 (stereo not drawn) [Compound 5-51] | 6.70 to 7.68 | – | – | < 6.30 | – | –
COc1[nH]ncc1-c1ccc2c(C(=O)C3COc4ccc(Cl)cc4C3)cn(C[C@H]3CCCN3C)c2c1 (stereo partly drawn) [Compound 1-28] | < 6.30 | – | – | < 6.30 | – | –
CCN(CCF)CCn1cc(C(=O)[C@@H]2COc3ccc(OC)cc3C2)c2ccc(-c3c[nH]nc3Cl)cc21 [Compound 5-12] | 6.70 to 7.68 | – | – | < 6.30 | – | –
CN(C)CCn1cc(C(=O)[C@@H]2COc3ccc(Cl)cc3C2)c2ccc(-c3cn[nH]c3F)cc21 [Compound 1-26] | > 7.70 | – | – | 6.30 to 6.70 | – | –
CN1CC(Cn2cc(C(=O)C3COc4ccc(Cl)cc4C3)c3ccc(-c4cn[nH]c4F)cc32)C1 (stereo not drawn) [Compound 1-43] | > 7.70 | – | – | 6.70 to 7.68 | – | –
COc1[nH]ncc1-c1ccc2c(C(=O)C3COc4ccc(Cl)cc4C3)cn(CCN(C)C)c2c1 (stereo not drawn) [Compound 5-28] | > 7.70 | – | – | < 6.30 | – | –
CCN(CC)CCn1cc(C(=O)[C@@H]2COc3ccc(OC)cc3C2)c2ccc(-c3cn[nH]c3Cl)cc21 [Compound 3-21] | 6.70 to 7.68 | – | – | 6.30 to 6.70 | – | –
COc1ccc2c(c1)C[C@H](C(=O)c1cn(C[C@H]3CCN3CCF)c3cc(-c4c[nH]nc4Cl)ccc13)CO2 [Compound 5-9] | > 7.70 | – | – | 6.30 to 6.70 | – | –
CN(C)CCn1cc(C(=O)[C@H]2COc3ccc(Cl)cc3C2)c2ccc(-c3cn[nH]c3Cl)cc21 [Compound 5-35] | 6.30 to 6.70 | – | – | < 6.30 | – | –
COc1ccc2c(c1)CC(C(=O)c1cn(C[C@@H]3CCN3C)c3cc(-c4cn[nH]c4OC)ccc13)CO2 (stereo partly drawn) [Compound 1-47] | > 7.70 | – | – | < 6.30 | – | –
CN1CC[C@@H]1Cn1cc(C(=O)C2COc3ccc(Cl)cc3C2)c2ccc(-c3cn[nH]c3F)cc21 (stereo partly drawn) [Compound 1-57] | 6.30 to 6.70 | – | – | < 6.30 | – | –
